# According to publication PMC8162360, “Total synthesis of biseokeaniamides A–C and late-stage electrochemically-enabled peptide analogue synthesis” (Chemical Science, 2020):
# Like-named read-outs stand apart in the source and are kept apart here. Non-standard residues stand in square brackets, D forms with d. Residues, ends and D or L forms follow the SMILES beside them. *: point of attachment. NMeF = CN[C@@H](Cc1ccccc1)C(=O)O; NMeV = CN[C@H](C(=O)O)C(C)C; Butyryl = CCCC(=O)*; X1 = CN(Cc1cccs1)*
# Assays:
# [1] = cited from earlier work
# Text: Probing the electrochemical generation and reactivity of N,O-acetals | column: pKa (R–OH)[27,28] || The reactivity of the methanol-derived N,O-acetal 6a was examined using a Friedel–Crafts-type reaction with thiophene in the presence of TFA (2.0 equiv.), which serves to regenerate the N-acyliminium for nucleophilic attack. […] How ...
# HeLa S3 cells = test: MTT 72 hour viability assay, HeLa S3 cells; type: cell-based
# Description: (§1) Evaluation of biological activity
# (§2) Cell Culture of A549 and HeLa S3 Cells
# (§3) 1. A549 cells (ATCC® CCL-185) were cultured at 37 °C with 5% CO2 in DMEM/F12 (Ham)
# (§4) medium (Gibco, CAT#11330-032) supplemented with 10% fetal bovine serum (FBS) (Sigma-
# (§5) 2. HeLa S3 cells were cultured at 37 °C with 5% CO2 in F-12K nutrient mixture, Kaighn's
# (§6) modification medium (Gibco, CAT#21127-022) supplemented with 10% fetal bovine serum
# (§7) (FBS) (Sigma-Aldrich, CAT#F9423).
# (§8) 3. To subculture cells, media was aspirated and cell monolayers were washed once with dPBS
# (§9) (Gibco), and then detached using Trypsin-EDTA (0.25%, Gibco CAT#25200114), followed
# (§10) by neutralisation with growth media. Quantitation of cell number was obtained using the Life
# (§11) Technologies Countess II automated cell counter.
# (§12) MTT 72 Hour Viability Assay
# (§13) 1. A549 and HeLa S3 cells were seeded at 600 cells/well in 40 µL into a Corning clear 384-
# (§14) well plate (CAT# 3701) using the Biotek EL406, and cultured overnight.
# (§15) 2. Cells were then treated with various concentrations of compounds for 72 h. 0.2% DMSO
# (§16) and 25 µM Etoposide (Sigma-Aldrich) were used as controls.
# (§17) 3. 10 µL of MTT reagent (ThermoFisher, diluted to 2.5 mg/mL in DPBS) was then added to
# (§18) cells and incubated at 37 °C for 1.5 h.
# 4. Plates were then centrifuged at 800 × g for 5 min and the supernatant flicked off. 25 µL of
# isopropanol/HCl solution was then added to each well using the Biotek EL406 and the plates
# 5. Absorbance was then read at 570 nm using the PerkinElmer EnVision Multimode plate
# 6. Statistical Analysis: Results were normalised to the average blank value (media only
# control), and then presented as a percentage of the control (0.2% DMSO (vehicle) treated cells)
# [2] = tested on: A549 cells (ATCC CCL-185); type: cell-based; conditions: 72 h
# Description: as §1, §2, §3, §4, §5, §6, §7, §8, §9, §10, §11, §12, §13, §14, §15, §16, §17, §18
# 4. Plates were then centrifuged at 800 × g for 5 min and the supernatant flicked off. 25 µL of […]
# 5. Absorbance was then read at 570 nm using the PerkinElmer EnVision Multimode plate […]
# [3] = pKa of the alcohol or carboxylic acid R-OH used in the electrolysis
Compound,"pKa (R–OH) [1, 3]",IC50 (HeLa S3 cells; 72 h),IC50 [2],further results
"OC(C(F)(F)F)C(F)(F)F [(CF3)2CH, hexafluoroisopropanol]",9.3,–,–,–
"OCC(F)(F)F [CF3CH2, trifluoroethanol]",–,–,–,pKa (R–OH) [1]: 12.5
O=C(O)C(Cl)(Cl)Cl [Cl3CCO],0.85,–,–,–
C=CCCN(C)C(=O)[C@@H](NC(=O)[C@H](CC(C)C)NC(=O)[C@H](Cc1ccccc1)NC(C)=O)C(C)C [Compound 19],–,9.2 µM,7.9 µM,cytotoxicity compared with natural products 1a-1c (HeLa S3 cells): enhanced cytotoxicity in relation to the natural products
CCCC(=O)N(C)[C@H](C(=O)N1CCC[C@H]1C(=O)N(C)[C@@H](Cc1ccccc1)C(=O)N[C@@H](CC(C)C)C(=O)N[C@H](C(=O)N(C)Cc1cccs1)C(C)C)C(C)C [Compound 21] (Butyryl-[NMeV]P[NMeF]LV-X1),–,18.4 µM,27.4 µM,"cytotoxicity compared with natural products 1a-1c (HeLa S3 cells; comparative HeLa cell viability assays, Fig. 1A, MTT, 72 h): enhanced cytotoxicity in relation to the natural products"
"CO [Me, methanol]",15.5,–,–,–
